Patent publication US8440830B2, “Tetrahydro-fused pyridines as histone deacetylase inhibitors” (4SC AG, priority 2007, dated 2013)

The molecules below were run on A549 NSCLC cells (assay: Cellular cytotoxicity assay (Alamar Blue), A549). Details: Homo sapiens, 72 h, upper end given as ≧100, read-out: IC50 (μM), cytotoxicity towards A549 NSCLC cells.
Format: cell-based
Procedure, shortened: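 Resazurin-to-resorufin fluorescence (ex 544, em 590 nm, after 4 h) gave viability as % of untreated cells following 72 h compound exposure at 37 °C. Compounds were added in semi-logarithmic dilutions 24 h post-seeding, quadruplicate wells; IC50 fitted by non-linear regression of concentration-effect curves.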

Question: With CN(C)c1ccc(NC(=NC#N)N2CCc3nc(C(=O)Nc4ccccc4N)sc3C2)cc1 [Example 120, N-(2-aminophenyl)-5-[(cyanoimino){[4-(dimethylamino)phenyl]amino}methyl]-4,5,6,7-tetrahydro[1,3]thiazolo[5,4-c]pyridine-2-carboxamide] as the molecule, how does the IC50 read?
Answer: ≥ 0.2 µM

Question: With CCCCCNC(=NC#N)N1CCc2nc(C(=O)Nc3ccccc3N)sc2C1 [Example 121, N-(2-aminophenyl)-5-[(cyanoimino)(pentylamino)methyl]-4,5,6,7-tetrahydro[1,3]thiazolo[5,4-c]pyridine-2-carboxamide] as the molecule, how does the IC50 read?
Answer: ≥ 0.2 µM

Question: How did the IC50 turn out when COc1ccc(N)c(NC(=O)c2nc3c(s2)CN(C(=Nc2ccccc2)NC#N)CC3)c1 [Example 123, N-(2-amino-5-methoxyphenyl)-5-[(cyanoamino)(phenylimino)methyl]-4,5,6,7-tetrahydro[1,3]thiazolo[5,4-c]pyridine-2-carboxamide] was run?
Answer: ≥ 0.2 µM

Question: For COc1ccc(N=C(NC#N)N2CCc3nc(C(=O)Nc4cc(OC)ccc4N)sc3C2)cc1 [Example 124, N-(2-amino-5-methoxyphenyl)-5-{(cyanoamino)[(4-methoxyphenyl)imino]-methyl}-4,5,6,7-tetrahydro[1,3]thiazolo[5,4-c]pyridine-2-carboxamide], which IC50 is on record?
Answer: ≥ 0.2 µM

Question: For COc1ccc(N=C(NC#N)N2CCc3nc(C(=O)Nc4cc(C(C)C)ccc4N)sc3C2)cc1 [Example 125, N-(2-amino-5-isopropylphenyl)-5-{(cyanoamino)[(4-methoxyphenyl)-imino]methyl}-4,5,6,7-tetrahydro[1,3]thiazolo[5,4-c]pyridine-2-carboxamide], which IC50 is on record?
Answer: ≥ 0.2 µM

Question: For CC(=Nc1ccccc1)N1CCc2nc(C(=O)Nc3ccccc3N)sc2C1 [Example 126, N-(2-aminophenyl)-5-[N-phenylethanimidoyl]-4,5,6,7-tetrahydro[1,3]thiazolo[5,4-c]pyridine-2-carboxamide], which IC50 is on record?
Answer: ≥ 0.2 µM

Question: How did the IC50 turn out when COc1ccc(N=C(C)N2CCc3nc(C(=O)Nc4ccccc4N)sc3C2)cc1OC [Example 127, N-(2-aminophenyl)-5-[N-(3,4-dimethoxyphenyl)ethanimidoyl]-4,5,6,7 tetrahydro[1,3]thiazolo[5,4-c]pyridine-2-carboxamide] was run?
Answer: ≥ 0.2 µM

Question: How did the IC50 turn out when COc1ccc(N=C(C)N2CCc3nc(C(=O)Nc4ccccc4N)sc3C2)cc1 [Example 128, N-(2-aminophenyl)-5-[N-(4-methoxyphenyl)ethanimidoyl]-4,5,6,7-tetrahydro[1,3]thiazolo[5,4-c]pyridine-2-carboxamide] was run?
Answer: ≥ 0.2 µM

Question: How did the IC50 turn out when COc1ccc(N)c(NC(=O)c2nc3c(s2)CN(C(C)=Nc2ccccc2)CC3)c1 [Example 129, N-(2-amino-5-methoxyphenyl)-5-[N-phenylethanimidoyl]-4,5,6,7-tetrahydro[1,3]thiazolo[5,4-c]pyridine-2-carboxamide] was run?
Answer: ≥ 0.2 µM

Question: With COc1ccc(N=C(C)N2CCc3nc(C(=O)Nc4cc(OC)ccc4N)sc3C2)cc1 [Example 130, N-(2-amino-5-methoxyphenyl)-5-[N-(4-methoxyphenyl)ethanimidoyl]-4,5,6,7-tetrahydro[1,3]thiazolo[5,4-c]pyridine-2-carboxamide] as the molecule, how does the IC50 read?
Answer: ≥ 0.2 µM

Question: COc1ccc(N)c(NC(=O)c2nc3c(s2)CN(C(C)=Nc2ccc(OC)c(OC)c2)CC3)c1 [Example 131, N-(2-amino-5-methoxyphenyl)-5-[N-(3,4-dimethoxyphenyl)ethanimidoyl]-4,5,6,7-tetrahydro[1,3]thiazolo[5,4-c]pyridine-2-carboxamide] was tested. Which IC50 did it give?
Answer: ≥ 0.2 µM

Question: How did the IC50 turn out when COc1ccc(N=C(C)N2CCc3nc(C(=O)Nc4cc(C(C)C)ccc4N)sc3C2)cc1 [Example 132, N-(2-amino-5-isopropylphenyl)-5-[N-(4-methoxyphenyl)ethanimidoyl]-4,5,6,7-tetrahydro[1,3]thiazolo[5,4-c]pyridine-2-carboxamide] was run?
Answer: ≥ 0.2 µM

Question: How did the IC50 turn out when COc1ccc(N=C(C)N2CCc3nc(C(=O)Nc4cc(C(C)C)ccc4N)sc3C2)cc1OC [Example 133, N-(2-amino-5-isopropylphenyl)-5-[N-(3,4-dimethoxyphenyl)ethanimidoyl]-4,5,6,7-tetrahydro[1,3]thiazolo[5,4-c]pyridine-2-carboxamide] was run?
Answer: ≥ 0.2 µM

Question: CC(=Nc1ccc(N(C)C)cc1)N1CCc2nc(C(=O)Nc3ccccc3N)sc2C1 [Example 134, N-(2-aminophenyl)-5-{N-[4-(dimethylamino)phenyl]ethanimidoyl}-4,5,6,7-tetrahydro[1,3]thiazolo[5,4-c]pyridine-2-carboxamide] was tested. Which IC50 did it give?
Answer: ≥ 0.2 µM

Question: How did the IC50 turn out when CC(=Nc1ccccc1)N1CCc2nc(C(=O)Nc3cc(C(C)C)ccc3N)sc2C1 [Example 135, N-(2-amino-5-isopropylphenyl)-5-[N-phenylethanimidoyl]-4,5,6,7-tetrahydro[1,3]thiazolo[5,4-c]pyridine-2-carboxamide] was run?
Answer: ≥ 0.2 µM

Question: How did the IC50 turn out when Nc1ccccc1NC(=O)c1nc2c(s1)CN(C(=C[N+](=O)[O-])Nc1ccccc1)CC2 [Example 136, N-(2-aminophenyl)-5-[1-anilino-2-nitroyinyl]-4,5,6,7-tetrahydro[1,3]thiazolo[5,4-c]pyridine-2-carboxamide] was run?
Answer: ≥ 0.2 µM

Question: With COc1ccc(NC(=C[N+](=O)[O-])N2CCc3nc(C(=O)Nc4ccccc4N)sc3C2)cc1 [Example 137, N-(2-aminophenyl)-5-{1-[(4-methoxyphenyl)amino]-2-nitroyinyl}-4,5,6,7-tetrahydro[1,3]thiazolo[5,4-c]pyridine-2-carboxamide] as the molecule, how does the IC50 read?
Answer: ≥ 0.2 µM

Question: Which IC50 does the source give for CCCCNC(=C[N+](=O)[O-])N1CCc2nc(C(=O)Nc3ccccc3N)sc2C1 [Example 138, N-(2-aminophenyl)-5-[1-(butylamino)-2-nitrovinyl]-4,5,6,7-tetrahydro[1,3]thiazolo[5,4-c]pyridine-2-carboxamide] here?
Answer: ≥ 0.2 µM

Question: How did the IC50 turn out when CC(C)c1ccc(NC(=C[N+](=O)[O-])N2CCc3nc(C(=O)Nc4ccccc4N)sc3C2)cc1 [Example 139, N-(2-aminophenyl)-5-{1-[(4-isopropylphenyl)amino]-2-nitrovinyl}-4,5,6,7-tetrahydro[1,3]thiazolo[5,4-c]pyridine-2-carboxamide] was run?
Answer: ≥ 0.2 µM

Question: CN(C)c1ccc(NC(=C[N+](=O)[O-])N2CCc3nc(C(=O)Nc4ccccc4N)sc3C2)cc1 [Example 140, N-(2-aminophenyl)-5-[1-{[4-(dimethylamino)phenyl]amino}-2-nitrovinyl]-4,5,6,7-tetrahydro[1,3]thiazolo[5,4-c]pyridine-2-carboxamide] was tested. Which IC50 did it give?
Answer: ≥ 0.2 µM

Question: COc1ccc(NC(=C[N+](=O)[O-])N2CCc3nc(C(=O)Nc4ccccc4N)sc3C2)cc1OC [Example 141, N-(2-aminophenyl)-5-{1-[(3,4-dimethoxyphenyl)amino]-2-nitrovinyl}-4,5,6,7-tetrahydro[1,3]thiazolo[5,4-c]pyridine-2-carboxamide] was tested. Which IC50 did it give?
Answer: ≥ 0.2 µM

Question: How did the IC50 turn out when COc1ccc(NC(=C[N+](=O)[O-])N2CCc3nc(C(=O)Nc4cc(OC)ccc4N)sc3C2)cc1 [Example 142, N-(2-amino-5-methoxyphenyl)-5-{1-[(4-methoxyphenyl)amino]-2-nitrovinyl}-4,5,6,7-tetrahydro[1,3]thiazolo[5,4-c]pyridine-2-carboxamide] was run?
Answer: ≥ 0.2 µM

Question: How did the IC50 turn out when COc1ccc(N)c(NC(=O)c2nc3c(s2)CN(C(=C[N+](=O)[O-])Nc2ccc(C(C)C)cc2)CC3)c1 [Example 143, N-(2-amino-5-methoxyphenyl)-5-{1-[(4-isopropylphenyl)amino]-2-nitrovinyl}-4,5,6,7-tetrahydro[1,3]thiazolo[5,4-c]pyridine-2-carboxamide] was run?
Answer: ≥ 0.2 µM

Question: With COc1ccc(N)c(NC(=O)c2nc3c(s2)CN(C(=C[N+](=O)[O-])Nc2ccc(N(C)C)cc2)CC3)c1 [Example 144, N-(2-amino-5-methoxyphenyl)-5-[1-{[4-(dimethylamino)phenyl]amino}-2-nitrovinyl]-4,5,6,7-tetrahydro[1,3]thiazolo[5,4-c]pyridine-2-carboxamide] as the molecule, how does the IC50 read?
Answer: ≥ 0.2 µM

Question: For CC(C)c1ccc(N)c(NC(=O)c2nc3c(s2)CN(C(=C[N+](=O)[O-])Nc2ccccc2)CC3)c1 [Example 145, N-(2-amino-5-isopropylphenyl)-5-[1-anilino-2-nitrovinyl]-4,5,6,7-tetrahydro[1,3]thiazolo[5,4-c]pyridine-2-carboxamide], which IC50 is on record?
Answer: ≥ 0.2 µM

Question: For COc1ccc(NC(=C[N+](=O)[O-])N2CCc3nc(C(=O)Nc4cc(C(C)C)ccc4N)sc3C2)cc1 [Example 146, N-[2-amino-5-(1-methylethyl)phenyl]-5-{1-[(4-methoxyphenyl)amino]-2-nitroethenyl}-4,5,6,7-tetrahydro[1,3]thiazolo[5,4-c]pyridine-2-carboxamide], which IC50 is on record?
Answer: ≥ 0.2 µM

Question: With CC(C)c1ccc(N)c(NC(=O)c2nc3c(s2)CN(C(=C[N+](=O)[O-])Nc2ccc(N(C)C)cc2)CC3)c1 [Example 147, N-(2-amino-5-isopropylphenyl)-5-[1-{[4-(dimethylamino)phenyl]amino}-2-nitrovinyl]-4,5,6,7-tetrahydro[1,3]thiazolo[5,4-c]pyridine-2-carboxamide] as the molecule, how does the IC50 read?
Answer: ≥ 0.2 µM

Question: With CC(C)c1ccc(NC(=C[N+](=O)[O-])N2CCc3nc(C(=O)Nc4cc(C(C)C)ccc4N)sc3C2)cc1 [Example 148, N-(2-amino-5-isopropylphenyl)-5-{1-[(4-isopropylphenyl)amino]-2-nitrovinyl}-4,5,6,7-tetrahydro[1,3]thiazolo[5,4-c]pyridine-2-carboxamide] as the molecule, how does the IC50 read?
Answer: ≥ 0.2 µM

Question: Which IC50 does the source give for COc1ccc(N)c(NC(=O)c2nc3c(s2)CN(C(=C[N+](=O)[O-])Nc2ccc(F)cc2)CC3)c1 [Example 149, N-(2-amino-5-methoxyphenyl)-5-{1-[(4-fluorophenyl)amino]-2-nitrovinyl}-4,5,6,7-tetrahydro[1,3]thiazolo[5,4-c]pyridine-2-carboxamide] here?
Answer: ≥ 0.2 µM

Question: Nc1ccccc1NC(=O)c1nc2c(s1)CN(S(=O)(=O)Cc1ccccc1)CC2 [Example 151, N-(2-aminophenyl)-5-(benzylsulfonyl)-4,5,6,7-tetrahydro[1,3]thiazolo[5,4-c]pyridine-2-carboxamide] was tested. Which IC50 did it give?
Answer: ≥ 0.2 µM

Question: CC(=O)Nc1ccc(S(=O)(=O)N2CCc3nc(C(=O)Nc4ccccc4N)sc3C2)cc1 [Example 155, 5-[(4-acetamidophenyl)sulfonyl]-N-(2-aminophenyl)-4,5,6,7-tetrahydro[1,3]thiazolo[5,4-c]pyridine-2-carboxamide] was tested. Which IC50 did it give?
Answer: ≥ 0.2 µM
